Measurements published in US6525001B1, “Substituted pyrimidine and pyridine herbicides” (Mid-American Commercialization Corporation, priority 1997, dated 2003).

Columns and labels:
Test in all cases: Test B pre-/postemergence
Type in all cases: in vivo
Parameters in all cases: key: 0 is no effect; 10 is complete control
wild oat (Avena fatua) = tested on: wild oat (Avena fatua)
Description: (§1) Seeds of bedstraw (Galium aparine), blackgrass (Alopecurus myosuroides), broadleaf signalgrass (Brachiaria decumbens), cocklebur (Xanthium strumarium), corn (Zea mays), crabgrass (Digitaria sanguinalis), giant foxtail (Setaria faberii), lambsquarters (Chenopodium album), momingglory (Ipomoea hederacea), pigweed (Amaranthus retroflexus), rape (Brassica napus), soybean (Glycine max), sugar beet (Beta vulgaris), velvetleaf (Abutilon theophrasti), wheat (Triticum aestivum), wild oat (Avena fatua) and purple nutsedge (Cyperus rotundus) tubers were planted and treated preemergence with test chemicals formulated in a non-phytotoxic solvent mixture which included a surfactant.
(§2) At the same time, these crop and weed species were also treated with postemergence applications of test chemicals formulated in the same manner. Plants ranged in height from 2 to 18 cm (1- to 4-leaf stage) for postemergence treatments. Plant species in the flood test consisted of rice (Oryza sativa), smallflower flatsedge (Cyperus difformis), duck salad (Heteranthera limosa) and bamyardgrass (Echinochloa crus-galli) grown to the 2-leaf stage for testing. Treated plants and controls were maintained in a greenhouse for twelve to sixteen days, after which all species were compared to controls and visually evaluated. Plant response ratings, summarized in Table B, are based on a scale of 0 to 10 where 0 is no effect and 10 is complete control. A dash (−) response means no test result.

[1] = tested on: sugar beet (Beta vulgaris)
Description: as §1, §2

[2] = tested on: cocklebur (Xanthium strumarium)
Description: as §1, §2

[3] = tested on: pigweed (Amaranthus retroflexus)
Description: as §1, §2

soybean (Glycine max) = tested on: soybean (Glycine max)
Description: as §1, §2

[4] = tested on: blackgrass (Alopecurus myosuroides)
Description: as §1, §2

[5] = tested on: momingglory (Ipomoea hederacea)
Description: as §1, §2

[6] = tested on: broadleaf signalgrass (Brachiaria decumbens)
Description: as §1, §2

[7] = tested on: wheat (Triticum aestivum)
Description: as §1, §2

[8] = tested on: bedstraw (Galium aparine)
Description: as §1, §2

rape (Brassica napus) = tested on: rape (Brassica napus)
Description: as §1, §2

[9] = tested on: crabgrass (Digitaria sanguinalis)
Description: as §1, §2

[10] = tested on: velvetleaf (Abutilon theophrasti)
Description: as §1, §2

[11] = tested on: purple nutsedge (Cyperus rotundus)
Description: as §1, §2

[12] = tested on: giant foxtail (Setaria faberii)
Description: as §1, §2

corn (Zea mays) = tested on: corn (Zea mays)
Description: as §1, §2

Cc1cnc(-c2ccc(C(F)(F)F)cc2)nc1Cn1cnc(C(F)(F)F)n1 [Compound 11] was tested, and the “Plant response rating, Wild oats” value (wild oat (Avena fatua); Rate 62 g/ha, Postemergence) was 2, the “Wild oats plant response rating” value (wild oat (Avena fatua); Rate 62 g/ha, Preemergence) was 2 and the “Plant response rating, Wild oats” value (wild oat (Avena fatua); Rate 125 g/ha, Postemergence) was 3. The “Wild oats plant response rating” value (wild oat (Avena fatua); Rate 125 g/ha, Preemergence) was 4, the “Plant response rating, Wild oats” value (wild oat (Avena fatua); Rate 250 g/ha, Postemergence) was 3 and the “Plant response rating, Wild oats” value (wild oat (Avena fatua); Rate 250 g/ha, Preemergence) was 4. For the same compound, the “Plant response rating, Wild oats” value (wild oat (Avena fatua); Rate 500 g/ha, Postemergence) was 5, the “Plant response rating, Wild oats” value (wild oat (Avena fatua); Rate 500 g/ha, Preemergence) was 6 and the “Plant response rating, Sugarbeets” value ([1]; Rate 62 g/ha, Postemergence) was 9. The “Sugarbeets plant response rating” value ([1]; Rate 62 g/ha, Preemergence) was 10, the “Plant response rating, Sugarbeets” value ([1]; Rate 125 g/ha, Postemergence) was 10 and the “Sugarbeets plant response rating” value ([1]; Rate 125 g/ha, Preemergence) was 10. For the same compound, the “Plant response rating, Sugarbeets” value ([1]; Rate 250 g/ha, Postemergence) was 10, the “Plant response rating, Sugarbeets” value ([1]; Rate 250 g/ha, Preemergence) was 10 and the “Plant response rating, Sugarbeets” value ([1]; Rate 500 g/ha, Postemergence) was 10. The “Plant response rating, Sugarbeets” value ([1]; Rate 500 g/ha, Preemergence) was 10, the “Plant response rating, Cocklebur” value ([2]; Rate 62 g/ha, Postemergence) was 7 and the “Cocklebur plant response rating” value ([2]; Rate 62 g/ha, Preemergence) was 0. For the same compound, the “Plant response rating, Cocklebur” value ([2]; Rate 125 g/ha, Postemergence) was 8, the “Plant response rating, Cocklebur” value ([2]; Rate 250 g/ha, Postemergence) was 9 and the “Plant response rating, Cocklebur” value ([2]; Rate 250 g/ha, Preemergence) was 3. For the same compound, the “Plant response rating, Cocklebur” value ([2]; Rate 500 g/ha, Postemergence) was 9, the “Plant response rating, Redroot pigweed” value ([3]; Rate 62 g/ha, Postemergence) was 9 and the “Redroot pigweed plant response rating” value ([3]; Rate 62 g/ha, Preemergence) was 9. The “Plant response rating, Redroot pigweed” value ([3]; Rate 125 g/ha, Postemergence) was 10, the “Redroot pigweed plant response rating” value ([3]; Rate 125 g/ha, Preemergence) was 9 and the “Plant response rating, Redroot pigweed” value ([3]; Rate 250 g/ha, Postemergence) was 10. The “Plant response rating, Redroot pigweed” value ([3]; Rate 250 g/ha, Preemergence) was 10, the “Plant response rating, Redroot pigweed” value ([3]; Rate 500 g/ha, Postemergence) was 10 and the “Plant response rating, Redroot pigweed” value ([3]; Rate 500 g/ha, Preemergence) was 10. For the same compound, the “Plant response rating, Soybean” value (soybean (Glycine max); Rate 62 g/ha, Postemergence) was 5, the “Soybean plant response rating” value (soybean (Glycine max); Rate 62 g/ha, Preemergence) was 1 and the “Plant response rating, Soybean” value (soybean (Glycine max); Rate 125 g/ha, Postemergence) was 7. For the same compound, the “Soybean plant response rating” value (soybean (Glycine max); Rate 125 g/ha, Preemergence) was 1, the “Plant response rating, Soybean” value (soybean (Glycine max); Rate 250 g/ha, Postemergence) was 8 and the “Plant response rating, Soybean” value (soybean (Glycine max); Rate 250 g/ha, Preemergence) was 1. For the same compound, the “Plant response rating, Soybean” value (soybean (Glycine max); Rate 500 g/ha, Postemergence) was 9, the “Plant response rating, Soybean” value (soybean (Glycine max); Rate 500 g/ha, Preemergence) was 2 and the “Plant response rating, Blackgrass” value ([4]; Rate 62 g/ha, Postemergence) was 2. The “Blackgrass plant response rating” value ([4]; Rate 62 g/ha, Preemergence) was 3, the “Plant response rating, Blackgrass” value ([4]; Rate 125 g/ha, Postemergence) was 3 and the “Blackgrass plant response rating” value ([4]; Rate 125 g/ha, Preemergence) was 3. For the same compound, the “Plant response rating, Blackgrass” value ([4]; Rate 250 g/ha, Postemergence) was 7, the “Plant response rating, Blackgrass” value ([4]; Rate 250 g/ha, Preemergence) was 5 and the “Plant response rating, Blackgrass” value ([4]; Rate 500 g/ha, Postemergence) was 5. The “Plant response rating, Blackgrass” value ([4]; Rate 500 g/ha, Preemergence) was 5, the “Plant response rating, Morningglory” value ([5]; Rate 62 g/ha, Postemergence) was 7 and the “Morningglory plant response rating” value ([5]; Rate 62 g/ha, Preemergence) was 3. For the same compound, the “Plant response rating, Morningglory” value ([5]; Rate 125 g/ha, Postemergence) was 10, the “Morningglory plant response rating” value ([5]; Rate 125 g/ha, Preemergence) was 8 and the “Plant response rating, Morningglory” value ([5]; Rate 250 g/ha, Postemergence) was 10. The “Plant response rating, Morningglory” value ([5]; Rate 250 g/ha, Preemergence) was 9, the “Plant response rating, Morningglory” value ([5]; Rate 500 g/ha, Preemergence) was 10 and the “Plant response rating, B. signalgrass” value ([6]; Rate 62 g/ha, Postemergence) was 3. The “B. signalgrass plant response rating” value ([6]; Rate 62 g/ha, Preemergence) was 2, the “Plant response rating, B. signalgrass” value ([6]; Rate 125 g/ha, Postemergence) was 3 and the “B. signalgrass plant response rating” value ([6]; Rate 125 g/ha, Preemergence) was 3. For the same compound, the “Plant response rating, B. signalgrass” value ([6]; Rate 250 g/ha, Postemergence) was 4, the “Plant response rating, B. signalgrass” value ([6]; Rate 250 g/ha, Preemergence) was 8 and the “Plant response rating, B. signalgrass” value ([6]; Rate 500 g/ha, Postemergence) was 7. The “Plant response rating, B. signalgrass” value ([6]; Rate 500 g/ha, Preemergence) was 8, the “Plant response rating, Wheat” value ([7]; Rate 62 g/ha, Postemergence) was 2 and the “Wheat plant response rating” value ([7]; Rate 62 g/ha, Preemergence) was 0. For the same compound, the “Plant response rating, Wheat” value ([7]; Rate 125 g/ha, Postemergence) was 2, the “Wheat plant response rating” value ([7]; Rate 125 g/ha, Preemergence) was 1 and the “Plant response rating, Wheat” value ([7]; Rate 250 g/ha, Postemergence) was 3. For the same compound, the “Plant response rating, Wheat” value ([7]; Rate 250 g/ha, Preemergence) was 1, the “Plant response rating, Wheat” value ([7]; Rate 500 g/ha, Postemergence) was 3 and the “Plant response rating, Wheat” value ([7]; Rate 500 g/ha, Preemergence) was 3. For the same compound, the “Plant response rating, Bedstraw” value ([8]; Rate 62 g/ha, Postemergence) was 8, the “Bedstraw plant response rating” value ([8]; Rate 62 g/ha, Preemergence) was 5 and the “Plant response rating, Bedstraw” value ([8]; Rate 125 g/ha, Postemergence) was 9. The “Bedstraw plant response rating” value ([8]; Rate 125 g/ha, Preemergence) was 8, the “Plant response rating, Bedstraw” value ([8]; Rate 250 g/ha, Postemergence) was 10 and the “Plant response rating, Bedstraw” value ([8]; Rate 250 g/ha, Preemergence) was 9. For the same compound, the “Plant response rating, Bedstraw” value ([8]; Rate 500 g/ha, Postemergence) was 10, the “Plant response rating, Bedstraw” value ([8]; Rate 500 g/ha, Preemergence) was 9 and the “Plant response rating, Rape” value (rape (Brassica napus); Rate 62 g/ha, Postemergence) was 9. For the same compound, the “Rape plant response rating” value (rape (Brassica napus); Rate 62 g/ha, Preemergence) was 9, the “Plant response rating, Rape” value (rape (Brassica napus); Rate 125 g/ha, Postemergence) was 9 and the “Rape plant response rating” value (rape (Brassica napus); Rate 125 g/ha, Preemergence) was 9. For the same compound, the “Plant response rating, Rape” value (rape (Brassica napus); Rate 250 g/ha, Postemergence) was 10, the “Plant response rating, Rape” value (rape (Brassica napus); Rate 250 g/ha, Preemergence) was 10 and the “Plant response rating, Rape” value (rape (Brassica napus); Rate 500 g/ha, Postemergence) was 10. For the same compound, the “Plant response rating, Rape” value (rape (Brassica napus); Rate 500 g/ha, Preemergence) was 10, the “Plant response rating, Crabgrass” value ([9]; Rate 62 g/ha, Postemergence) was 2 and the “Crabgrass plant response rating” value ([9]; Rate 62 g/ha, Preemergence) was 7. The “Plant response rating, Crabgrass” value ([9]; Rate 125 g/ha, Postemergence) was 4, the “Crabgrass plant response rating” value ([9]; Rate 125 g/ha, Preemergence) was 7 and the “Plant response rating, Crabgrass” value ([9]; Rate 250 g/ha, Postemergence) was 6. For the same compound, the “Plant response rating, Crabgrass” value ([9]; Rate 250 g/ha, Preemergence) was 9, the “Plant response rating, Crabgrass” value ([9]; Rate 500 g/ha, Postemergence) was 7 and the “Plant response rating, Crabgrass” value ([9]; Rate 500 g/ha, Preemergence) was 10. The “Plant response rating, Velvetleaf” value ([10]; Rate 62 g/ha, Postemergence) was 8, the “Velvetleaf plant response rating” value ([10]; Rate 62 g/ha, Preemergence) was 3 and the “Plant response rating, Velvetleaf” value ([10]; Rate 125 g/ha, Postemergence) was 8. The “Velvetleaf plant response rating” value ([10]; Rate 125 g/ha, Preemergence) was 6, the “Plant response rating, Velvetleaf” value ([10]; Rate 250 g/ha, Postemergence) was 8 and the “Plant response rating, Velvetleaf” value ([10]; Rate 250 g/ha, Preemergence) was 8. The “Plant response rating, Velvetleaf” value ([10]; Rate 500 g/ha, Postemergence) was 9, the “Plant response rating, Velvetleaf” value ([10]; Rate 500 g/ha, Preemergence) was 10 and the “Plant response rating, Nutsedge” value ([11]; Rate 62 g/ha, Postemergence) was 1. The “Plant response rating, Nutsedge” value ([11]; Rate 125 g/ha, Postemergence) was 1, the “Nutsedge plant response rating” value ([11]; Rate 125 g/ha, Preemergence) was 0 and the “Plant response rating, Nutsedge” value ([11]; Rate 250 g/ha, Postemergence) was 1. The “Plant response rating, Nutsedge” value ([11]; Rate 250 g/ha, Preemergence) was 0, the “Plant response rating, Nutsedge” value ([11]; Rate 500 g/ha, Preemergence) was 1 and the “Plant response rating, Giant foxtail” value ([12]; Rate 62 g/ha, Postemergence) was 2. The “Giant foxtail plant response rating” value ([12]; Rate 62 g/ha, Preemergence) was 6, the “Plant response rating, Giant foxtail” value ([12]; Rate 125 g/ha, Postemergence) was 4 and the “Giant foxtail plant response rating” value ([12]; Rate 125 g/ha, Preemergence) was 9. For the same compound, the “Plant response rating, Giant foxtail” value ([12]; Rate 250 g/ha, Postemergence) was 5, the “Plant response rating, Giant foxtail” value ([12]; Rate 250 g/ha, Preemergence) was 9 and the “Plant response rating, Giant foxtail” value ([12]; Rate 500 g/ha, Postemergence) was 9. For the same compound, the “Plant response rating, Giant foxtail” value ([12]; Rate 500 g/ha, Preemergence) was 10, the “Plant response rating, Corn” value (corn (Zea mays); Rate 62 g/ha, Postemergence) was 3 and the “Corn plant response rating” value (corn (Zea mays); Rate 62 g/ha, Preemergence) was 0. For the same compound, the “Plant response rating, Corn” value (corn (Zea mays); Rate 125 g/ha, Postemergence) was 3, the “Corn plant response rating” value (corn (Zea mays); Rate 125 g/ha, Preemergence) was 0 and the “Plant response rating, Corn” value (corn (Zea mays); Rate 250 g/ha, Postemergence) was 3. For the same compound, the “Plant response rating, Corn” value (corn (Zea mays); Rate 250 g/ha, Preemergence) was 0, the “Plant response rating, Corn” value (corn (Zea mays); Rate 500 g/ha, Postemergence) was 3 and the “Plant response rating, Corn” value (corn (Zea mays); Rate 500 g/ha, Preemergence) was 0.
